Experimental data taken from US4029881A, “Antibiotic 9-acyl-3"-thiomethoxymethyl-SF-837 composition and process for preparing the same” (Meiji Seika Co., Ltd., priority 1972, dated 1977).
≈ marks a conversion by molar mass, not a printed value. Where two headings read alike, the source gives them in different places.

How the values were obtained:
[1] = tested on: Staphylococcus aureus 209-P; experiment: therapeutic effect, treatment of animals infected by Staphylococcus (Table 3 A); assay type: in vivo, ICR-JCL mouse; details: orally once, 10 LD50
Excerpt: Therapeutic effect of the 9-acyl-3"-thiomethoxymethyl-SF-837 substance against bacterial infections.
A. treatment of animals infected by Staphylococcus. Animals tested: ICR-JCL mouse, 4-week old, male, 10 heads for each group.
Bacterium inoculated: Staphylococcus aureus 209-P.
Method of administration: Samples were suspended in a sterilized 2% aqueous gum arabic solution and administered once to the mice inoculated with the bacterium.

acute toxicity = assay type: in vivo, ICR-JCL mice; details: intraperitoneal, male mice, dead/tested
Excerpt: The acute toxicity of the 9-acyl-3"-thiomethoxymethyl-SF-837 substance
Animals tested: ICR-JCL mice, male.
Samples: Each substance was suspended in a 5% aqueous arabic gum solution.
Method of administration: Intraperitoneal injection.

[2] = tested on: Streptococcus pyrogenes Ti-125 Gr-A Type I; experiment: therapeutic effect, treatment of animals infected by Streptococcus (Table 3 B); assay type: in vivo, ICR-JCL mouse; details: orally once, 5LD50
Description: B. treatment of animals infected by Streptococcus
Animals tested: The same as in A.
Method of administration: The same as in A.
Bacterium inoculated: Streptococcus pyrogenes Ti-125 Gr-A Type I.
Inoculum size: 1× 10^7 cells/0.5 ml/mouse(5LD50).

Escherichia coli = experiment: antimicrobial spectrum, minimal inhibitory concentration; assay type: cell-based
Excerpt: (§1) The antimicrobial spectrum of the 9-acyl-3"-thiomethoxymethyl-SF-837 substance obtained according to the present invention is shown in Table 1.
(§2) The antimicrobial spectrum of the 9-acetyl- and 9-propionyl-3"-thiomethoxymethyl-SF-837 substance made according to the invention.

Vibrio coli 34E = experiment: as above; assay type: cell-based; details: Campylobacter coli
Excerpt: as §1, §2

Neisseria meningitidis = experiment: as above; assay type: cell-based
Excerpt: as §1, §2

[3] = tested on: Mycoplasma gallisepticum S-6; experiment: as above; assay type: cell-based; details: Mycoplasmoides gallisepticum, S6
Excerpt: as §1, §2

[4] = tested on: Mycoplasma gallisepticum CH3T; experiment: as above; assay type: cell-based; details: Mycoplasmoides gallisepticum
Excerpt: as §1, §2

Mycobacterium 607 = experiment: as above; assay type: cell-based
Excerpt: as §1, §2

[5] = tested on: Mycoplasma gallisepticum S-15P; experiment: as above; assay type: cell-based; details: Mycoplasmoides gallisepticum, read-out: Minimal Inhibitory Concentration
Excerpt: as §1, §2

[6] = tested on: Mycoplasma gallisepticum KP-13; experiment: as above; assay type: cell-based; details: Mycoplasmoides gallisepticum, KP13
Excerpt: as §1, §2

[7] = tested on: Mycoplasma gallisepticum S-35P; experiment: as above; assay type: cell-based; details: Mycoplasmoides gallisepticum, read-out: Minimal Inhibitory Concentration
Excerpt: as §1, §2

[8] = tested on: Neisseria gonorrhoeae Megurita; experiment: as above; assay type: cell-based
Excerpt: as §1, §2

[9] = tested on: Mycoplasma gallisepticum KP-3; experiment: as above; assay type: cell-based; details: Mycoplasmoides gallisepticum, KP3
Excerpt: as §1, §2

Vibrio coli SD-362 = experiment: as above; assay type: cell-based; details: Campylobacter coli, SD362
Excerpt: as §1, §2

Vibrio coli SD-358 = experiment: as above; assay type: cell-based; details: Campylobacter coli, SD358
Excerpt: as §1, §2

Staphylococcus aureus = experiment: as above; assay type: cell-based
Excerpt: as §1, §2

[10] = tested on: Mycoplasma gallisepticum T-4AT (tyrosine-resistant); experiment: microbe, parasite or virus in culture; assay type: cell-based; details: Mycoplasmoides gallisepticum, read-out: Minimal Inhibitory Concentration
Excerpt: as §1, §2

[11] = tested on: Staphylococcus aureus Strain 209-P; experiment: therapeutic effect on staphylococcal infection of mice (Table 2); assay type: in vivo; details: 350mg/Kg oral; intraperitoneal infection by Staphylococcus aureus 209-P
Excerpt: Since the 9-acyl-3"-thiomethoxymethyl-SF-837 substance is inhibitory against Gram-positive bacteria as the SF-837 substance is, it is as well available as an antimicrobial agent. Particularly, it is notable that the in vitro antimicrobial activity of the 9-acyl-3"-thiomethoxymethyl-SF-837 substance of the present invention against Escherichia coli, Mycobacterium, Mycoplasma, and macrolide-resistant Mycoplasma is higher than that of the SF-837 substance. Furthermore, the results of the therapeutic tests using the mice infected by Staphylococcus aureus Strain 209 P was better with the said 9-acyl-3"-thiomethoxymethyl-SF-837 substance than with its parent substance (see Table 2).
Therapeutic effect of the 9-acyl-3"thiomethoxy-methyl-SF-837 substance made according to the invention on the staphylococcal infection of mice in laboratory*).
*)Infection of mouse intraperitoneally by Staphylococcus aureus Strain

[12] = S15P, Mycoplasma gallisepticum S-15P
[13] = S35P, Mycoplasma gallisepticum S-35P

CCC(=O)OC1CC(=O)OC(C)CC=CC=CC(OC(C)=O)C(C)CC(CC=O)C(OC2OC(C)C(OC3CC(C)(O)C(OC(=O)CC)C(C)O3)C(N(C)C)C2O)C1OC (stereo not shown) [9-Acetyl-SF-837, reference compound]
Survival rate ([1]; 150 mg/Kg): 80%
Survival rate ([1]; 200 mg/Kg): 100%
Survival rate ([1]; 350 mg/Kg): 100%
Survival rate ([1]; 400 mg/Kg): 100%
Mortality (acute toxicity; 2,000 mg/Kg): 0/3
Mortality (acute toxicity; 4,000 mg/Kg): 1/3
Survival rate ([2]; 100 mg/Kg): 100%
Survival rate ([2]; 200 mg/Kg): 100%
Survival rate ([2]; 300 mg/Kg): 100%
Survival rate ([2]; 400 mg/Kg): 100%

CCC(=O)OC1CC(=O)OC(C)CC=CC=CC(OC(C)=O)C(C)CC(CC=O)C(OC2OC(C)C(OC3CC(C)(OCSC)C(OC(=O)CC)C(C)O3)C(N(C)C)C2O)C1OC (stereo not shown) [9-acetyl-3"-thiomethoxymethyl-SF-837]
MIC (Escherichia coli): 50 mg/L (≈ 54.6 µM)
MIC (Vibrio coli 34E): 25 mg/L (≈ 27.3 µM)
MIC (Neisseria meningitidis): 6.25 mg/L (≈ 6.82 µM)
MIC [3]: < 0.1 mg/L
MIC [4]: < 0.1 mg/L
MIC (Mycobacterium 607): 6.25 mg/L (≈ 6.82 µM)
MIC [5, 12]: < 0.1 mg/L
MIC [6]: < 0.1 mg/L
MIC [7, 13]: < 0.1 mg/L
MIC [8]: 100 mg/L (≈ 109 µM)
MIC [9]: < 0.1 mg/L
MIC (Vibrio coli SD-362): 25 mg/L (≈ 27.3 µM)
MIC (Vibrio coli SD-358): > 50 mg/L
MIC (Staphylococcus aureus): 0.78 mg/L (≈ 0.851 µM)
MIC [10]: 12.5 mg/L (≈ 13.6 µM)
Survival rate in a week after oral administration [11]: 90%
Survival rate ([1]; 150 mg/Kg): 30%
Survival rate ([1]; 200 mg/Kg): 80%
Survival rate ([1]; 350 mg/Kg): 90%
Survival rate ([1]; 400 mg/Kg): 100%
Mortality (acute toxicity; 2,000 mg/Kg): 0/3
Mortality (acute toxicity; 4,000 mg/Kg): 0/3
Survival rate ([2]; 100 mg/Kg): 100%
Survival rate ([2]; 200 mg/Kg): 100%
Survival rate ([2]; 300 mg/Kg): 100%
Survival rate ([2]; 400 mg/Kg): 100%

CCC(=O)OC1C=CC=CCC(C)OC(=O)CC(OC(=O)CC)C(OC)C(OC2OC(C)C(OC3CC(C)(OCSC)C(OC(=O)CC)C(C)O3)C(N(C)C)C2O)C(CC=O)CC1C (stereo not shown) [9-propionyl-3"-thiomethoxymethyl-SF-837]
MIC (Escherichia coli): 50 mg/L (≈ 53.8 µM)
MIC (Vibrio coli 34E): 25 mg/L (≈ 26.9 µM)
MIC (Neisseria meningitidis): 6.25 mg/L (≈ 6.72 µM)
MIC [3]: < 0.1 mg/L
MIC [4]: < 0.1 mg/L
MIC (Mycobacterium 607): 6.25 mg/L (≈ 6.72 µM)
MIC [5, 12]: < 0.1 mg/L
MIC [6]: < 0.1 mg/L
MIC [7, 13]: < 0.1 mg/L
MIC [8]: 100 mg/L (≈ 108 µM)
MIC [9]: < 0.1 mg/L
MIC (Vibrio coli SD-362): 25 mg/L (≈ 26.9 µM)
MIC (Vibrio coli SD-358): > 50 mg/L
MIC (Staphylococcus aureus): 0.78 mg/L (≈ 0.839 µM)
MIC [10]: 12.5 mg/L (≈ 13.4 µM)
Survival rate in a week after oral administration [11]: 90%
Survival rate ([1]; 150 mg/Kg): 30%
Survival rate ([1]; 200 mg/Kg): 70%
Survival rate ([1]; 350 mg/Kg): 90%
Survival rate ([1]; 400 mg/Kg): 100%
Mortality (acute toxicity; 2,000 mg/Kg): 0/3
Mortality (acute toxicity; 4,000 mg/Kg): 0/3
Survival rate ([2]; 100 mg/Kg): 100%
Survival rate ([2]; 200 mg/Kg): 100%
Survival rate ([2]; 300 mg/Kg): 100%
Survival rate ([2]; 400 mg/Kg): 100%

CCC(=O)OC1CC(=O)OC(C)CC=CC=CC(O)C(C)CC(CC=O)C(OC2OC(C)C(OC3CC(C)(O)C(OC(=O)CC)C(C)O3)C(N(C)C)C2O)C1OC (stereo not shown) [SF-837]
MIC (Escherichia coli): 100 mg/L (≈ 123 µM)
MIC (Vibrio coli 34E): 12.5 mg/L (≈ 15.4 µM)
MIC (Neisseria meningitidis): 6.25 mg/L (≈ 7.68 µM)
MIC [3]: 0.1 mg/L (≈ 0.123 µM)
MIC [4]: < 0.05 mg/L
MIC (Mycobacterium 607): 25 mg/L (≈ 30.7 µM)
MIC [5]: 0.05 mg/L (≈ 0.0614 µM)
MIC [6]: < 0.05 mg/L
MIC [7]: 0.05 mg/L (≈ 0.0614 µM)
MIC [8]: 25 mg/L (≈ 30.7 µM)
MIC [9]: < 0.05 mg/L
MIC (Vibrio coli SD-362): > 50 mg/L
MIC (Vibrio coli SD-358): > 50 mg/L
MIC (Staphylococcus aureus): 0.78 mg/L (≈ 0.958 µM)
MIC [10]: > 100 mg/L
Survival rate in a week after oral administration [11]: 37.5%
Survival rate ([1]; 150 mg/Kg): 20%
Survival rate ([1]; 200 mg/Kg): 40%
Survival rate ([1]; 350 mg/Kg): 60%
Survival rate ([1]; 400 mg/Kg): 90%
Mortality (acute toxicity; 2,000 mg/Kg): 2/3
Mortality (acute toxicity; 4,000 mg/Kg): 2/3
Survival rate ([2]; 100 mg/Kg): 70%
Survival rate ([2]; 200 mg/Kg): 90%
Survival rate ([2]; 300 mg/Kg): 100%
Survival rate ([2]; 400 mg/Kg): 100%
